The results in this text go back to patent US20090156577A1, “7-AMINO ALKYLIDENYL-HETEROCYCLIC QUINOLONES AND NAPHTHYRIDONES” (priority 2004, published 2009).

Values after ≈ are worked out from the molar mass of the structure shown. Read-outs that look alike come from different tables or passages of the source.

This experiment relates to pathogenic bacteria. Nature of the experiment: MIC by microdilution broth method (NCCLS M7-A4), in vitro antibacterial activity. Type of experiment: cell-based. On the procedure:
Minimal inhibitory concentration (MIC) has been an indicator of in vitro antibacterial activity widely used in the art. The in vitro antimicrobial activity of the compounds was determined by the microdilution broth method following the test method from the National Committee for Clinical Laboratory Standards (NCCLS). This method is described in the NCCLS Document M7-A4, Vol. 17, No. 2, “Methods for Dilution Antimicrobial Susceptibility Test for Bacteria that Grow Aerobically—Fourth Edition”, which is incorporated herein by reference.
In this method two-fold serial dilutions of drug in cation adjusted Mueller-Hinton broth are added to wells in microdilution trays. The test organisms are prepared by adjusting the turbidity of actively growing broth cultures so that the final concentration of test organism after it is added to the wells is approximately 5×10^4 CFU/well.
Following inoculation of the microdilution trays, the trays are incubated at 35° C. for 16-20 hours and then read. […] The amount of growth in the wells containing the test compound is compared with the amount of growth in the growth-control wells (no test compound) used in each tray. As set forth in Table 5, compounds of the present invention were tested against a variety of pathogenic bacteria resulting in a range of activities depending on the organism tested.
For orientation: In broth dilution the organism is exposed to a series of concentrations in liquid medium.

Where [1] appears, read: Staphylococcus aureus, Organism A: Staphylococcus aureus OC4172, read-out: MIC.
Where [2] appears, read: Streptococcus pneumoniae, ATCC49619, Organism E: Streptococcus pneumoniae ATCC 49619, read-out: MIC.
[3] abbreviates: Streptococcus pneumoniae, Organism C: fluoroquinolone-resistant clinical isolate of Streptococcus pneumoniae (QRDR amino acid substitutions).
Setting [4] is: Streptococcus pneumoniae, Organism D: fluoroquinolone-resistant clinical isolate of Streptococcus pneumoniae (QRDR amino acid substitutions).
[5] abbreviates: Streptococcus pneumoniae, Organism B: fluoroquinolone-resistant clinical isolate of Streptococcus pneumoniae (QRDR amino acid substitutions).

What is called MIC is the smallest concentration in the dilution series that meets the test's criterion for growth inhibition. `CON=C1CN(c2nc3c(cc2F)c(=O)c(C(=O)O)cn3C2CC2)CCC1=CCN` [Compound 61, 7-[4-(2-Amino-ethylidene)-3-methoxyimino-piperidin-1-yl]-1-cyclopropyl-6-fluoro-4-oxo-1,4-dihydro-[1,8]naphthyridine-3-carboxylic acid]: the minimal inhibitory concentration (MIC) under setting [1] is 0.12 µg/mL (≈ 0.289 µM), the MIC under setting [2] was determined as 1 µg/mL (≈ 2.41 µM) and inhibition of growth under setting [3] (MIC) required 16 µg/mL (≈ 38.5 µM).

Turning to `Cc1c(N2CCC/C(=C(\F)CN)C2)c(F)cc2c(=O)c(C(=O)O)cn(C3CC3)c12` [Compound 459, 7-[(E)-3-(2-Amino-1-fluoro-ethylidene)-piperidin-1-yl]-1-cyclopropyl-6-fluoro-8-methyl-4-oxo-1,4-dihydro-quinoline-3-carboxylic Acid], the minimal inhibitory concentration (MIC) by setting is: under setting [1], at most 0.015 µg/mL; under setting [2], 0.06 µg/mL (≈ 0.149 µM); under setting [3], 0.25 µg/mL (≈ 0.62 µM); under setting [4], 0.12 µg/mL (≈ 0.297 µM).

Turning to `O=C(O)c1cn(-c2ccc(F)cc2F)c2nc(N3CCC(=CCO)CC3)c(F)cc2c1=O` [Compound 185, 1-(2,4-Difluoro-phenyl)-6-fluoro-7-[4-(2-hydroxy-ethylidene)-piperidin-1-yl]-4-oxo-1,4-dihydro-[1,8]naphthyridine-3-carboxylic acid], the MIC by setting is: under setting [1], 0.12 µg/mL (≈ 0.269 µM); under setting [2], 1 µg/mL (≈ 2.25 µM); under setting [5], 16 µg/mL (≈ 35.9 µM); under setting [3], 16 µg/mL (≈ 35.9 µM).

In the case of `C[C@H]1COc2c(N3CCC/C(=C(\F)CN)CC3)c(F)cc3c(=O)c(C(=O)O)cn1c23` [Compound 492, (3S)-9-[(E)-4-(2-Amino-1-fluoro-ethylidene)-azepan-1-yl]-8-fluoro-3-methyl-6-oxo-2,3-dihydro-6H-1-oxa-3a-aza-phenalene-5-carboxylic Acid], the MIC under setting [1] was 0.06 µg/mL (≈ 0.143 µM), the MIC under setting [2] stood at 0.25 µg/mL (≈ 0.596 µM), the minimal inhibitory concentration (MIC) under setting [3] came out at 4 µg/mL (≈ 9.54 µM) and the lowest concentration to inhibit growth under setting [4] (MIC) was 8 µg/mL (≈ 19.1 µM).

With `CNCC(C)=C1CCN(c2nc3c(cc2F)c(=O)c(C(=O)O)cn3C2CC2)CC1` [Compound 217, 1-Cyclopropyl-6-fluoro-7-[4-(1-methyl-2-methylamino-ethylidene)-piperidin-1-yl]-4-oxo-1,4-dihydro-[1,8]naphthyridine-3-carboxylic acid], the MIC is, setting by setting: (Organism A: Staphylococcus aureus OC4172) 0.25 µg/mL (≈ 0.624 µM); (Organism C: fluoroquinolone-resistant clinical isolate of Streptococcus pneumoniae (QRDR amino acid substitutions)) 2 µg/mL (≈ 4.99 µM); (Organism D: fluoroquinolone-resistant clinical isolate of Streptococcus pneumoniae (QRDR amino acid substitutions)) 2 µg/mL (≈ 4.99 µM); (Organism E: Streptococcus pneumoniae ATCC 49619) 0.25 µg/mL (≈ 0.624 µM).

Regarding `NCC=C1CN(c2c(F)cc3c(=O)c(C(=O)O)cn(-c4nc(N)c(F)cc4F)c3c2Cl)C1` [Compound 420, 1-(6-Amino-3,5-difluoro-pyridin-2-yl)-7-[3-(2-amino-ethylidene)-azetidin-1-yl]-8-chloro-6-fluoro-4-oxo-1,4-dihydro-quinoline-3-carboxylic acid], the minimum inhibitory concentration (MIC) runs as follows: under setting [1], at most 0.015 µg/mL; under setting [2], 0.12 µg/mL (≈ 0.258 µM); under setting [3], 1 µg/mL (≈ 2.15 µM); under setting [4], 0.5 µg/mL (≈ 1.07 µM).

On to `NC/C(F)=C1/CCCN(c2c(F)c(N)c3c(=O)c(C(=O)O)cn(C4CC4)c3c2F)C1` [Compound 456, 5-Amino-7-[(E)-3-(2-amino-1-fluoro-ethylidene)-piperidin-1-yl]-1-cyclopropyl-6,8-difluoro-4-oxo-1,4-dihydro-quinoline-3-carboxylic Acid], for which the MIC reads like this: under setting [1], at most 0.015 µg/mL; under setting [2], 0.03 µg/mL (≈ 0.071 µM); under setting [5], 0.06 µg/mL (≈ 0.142 µM); under setting [3], 0.12 µg/mL (≈ 0.284 µM); under setting [4], 0.12 µg/mL (≈ 0.284 µM).

`C[C@H]1COc2c(N3CCC/C(=C(/F)CN)CC3)c(F)cc3c(=O)c(C(=O)O)cn1c23` [Compound 491, (3S)-9-[(Z)-4-(2-Amino-1-fluoro-ethylidene)-azepan-1-yl]-8-fluoro-3-methyl-6-oxo-2,3-dihydro-6H-1-oxa-3a-aza-phenalene-5-carboxylic Acid]: the minimum inhibitory concentration (MIC) under setting [1] was 0.12 µg/mL (≈ 0.286 µM), the minimum inhibitory concentration (MIC) under setting [2] came out at 1 µg/mL (≈ 2.38 µM), the MIC under setting [3] was determined as 8 µg/mL (≈ 19.1 µM) and the minimum inhibitory concentration (MIC) under setting [4] amounted to 16 µg/mL (≈ 38.1 µM).
